Laboratory results published in US20160256457A1, “METHODS FOR TREATING OR PREVENTING ACUTE VASCULAR LEAK” (Beth Israel Deaconess Medical Center, Inc., priority 2014, published 2016).
“Also recorded” adds a separate entry of the source.

Legend:
[1] = tested on: Primary human dermal microvascular endothelial cells; assay: ECIS steady-state barrier function of confluent endothelial monolayers; format: cell-based; details: for endothelial barrier function (ECIS) compared to benchmark agents / endothelial barrier function (ECIS) compared to other Src inhibitors: bosutinib 300 nM; for endothelial barrier function (ECIS) compared to benchmark agents: HGF 100 ng/ml (1200 nM), APC 500 nM, monitored ~18 hours, FIG. 6; for endothelial barrier function (ECIS) compared to other Src inhibitors: dasatinib 300 nM, PP2 10 μM, monitored ~22 hours, FIG. 7
Protocol: (§1) Primary human dermal microvascular endothelial cells were grown to confluence. […] Data are mean±SEM of three independent experiments.
as §1, §1

[2] = tested on: Primary human dermal microvascular endothelial cells; assay: Thrombin- and histamine-induced vascular permeability assays (ECIS), pretreatment; format: cell-based; details: for protection to histamine challenge / protection to thrombin challenge: 300 nM for 30 min; for protection to histamine challenge: then histamine 300 μM, FIG. 3B; for protection to thrombin challenge: then thrombin 2.5 U/ml, FIG. 3A
Protocol: For all assays, primary human dermal microvascular endothelial cells were grown to confluence. Steady state barrier function was monitored by ECIS and normalized to a value of 1. […] Data are mean±SEM of three independent experiments.

FIP rats = assay: Polymicrobial sepsis model (feces-induced peritonitis; FIP), intravital microscopy of the hindlimb; format: in vivo, rat
Protocol: Disease onset was initiated by tail vein injection of a solution of saline and rat feces. […] Microvascular parameters were measured through intravital microscopy of the hindlimb at baseline, 3 hr and 5 hr post FIP onset. […] Data are representative of two separate pilot experiments.

[3] = tested on: Primary bovine aortic endothelial cells; assay: ECIS barrier function, dose response over 72 hours; format: cell-based; details: FIG. 2; for vascular barrier function (ECIS resistance, normalized to 1): single doses, 10 nM to 3 μM, monitored 72 hours
Protocol: Primary bovine aortic endothelial cells were grown to confluence. Steady state barrier function was monitored by ECIS for 24 hours and normalized to a value of 1. […] Data are mean±SEM of three independent experiments.

Src = Src (Homo sapiens, UniProt P12931); details: cited from earlier work
Chain of Src (P12931 whole entry, species assumed): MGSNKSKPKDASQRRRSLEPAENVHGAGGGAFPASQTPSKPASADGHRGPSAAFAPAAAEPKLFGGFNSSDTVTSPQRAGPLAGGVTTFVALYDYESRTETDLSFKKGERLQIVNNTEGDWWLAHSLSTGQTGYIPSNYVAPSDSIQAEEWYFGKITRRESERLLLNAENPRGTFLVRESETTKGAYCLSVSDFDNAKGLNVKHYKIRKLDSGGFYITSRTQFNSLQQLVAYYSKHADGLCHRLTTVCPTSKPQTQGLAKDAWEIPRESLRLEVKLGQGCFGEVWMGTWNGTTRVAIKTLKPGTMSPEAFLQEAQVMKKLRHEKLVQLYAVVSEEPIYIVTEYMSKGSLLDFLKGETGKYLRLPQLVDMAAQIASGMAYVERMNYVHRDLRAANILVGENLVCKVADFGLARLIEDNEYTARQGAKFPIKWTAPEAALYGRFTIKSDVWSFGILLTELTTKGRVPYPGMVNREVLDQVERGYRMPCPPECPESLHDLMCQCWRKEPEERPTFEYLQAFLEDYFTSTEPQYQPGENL

[4] = tested on: Primary human dermal microvascular endothelial monolayers; assay: Confocal imaging of actin and VE-cadherin junctions during permeability challenge; format: cell-based
Description: Samples were fixed and stained for actin (i) and the junctional marker VE-cadherin (ii) before imaging by confocal microscopy. To assess quality of endothelial junctions (see B), image thresholding was applied to the VE-cadherin images to delineate the junctions (line traces in [iii]). […] Scale bar represents 10 μm.
Primary human dermal microvascular endothelial monolayers were challenged with either Thrombin (Thr) or Histamine (His) as described above for FIG. 5A. Quantitative analysis of (i) total junctional area per field and (ii) VE-cadherin intensity within junctions were performed to assess maintenance of junctional integrity. […] Data are mean±SEM of three independent experiments.

[5] = imaging-based analysis, FIGS. 5A and 5B

Compound: COc1cc(Nc2c(C#N)cnc3cc(OCCCN4CCN(C)CC4)c(OC)cc23)c(Cl)cc1Cl [bosutinib]
- endothelial barrier function (ECIS) compared to benchmark agents [1]: exhibits unprecedented efficacy and duration of action
- endothelial barrier function (ECIS) compared to benchmark agents ([1]; listed as Bosutinib): significant and sustained increase in barrier function
- endothelial barrier function (ECIS) compared to other Src inhibitors [1]: sustained increase in barrier function
- vascular barrier function (ECIS resistance, normalized to 1) ([1]; single 300 nM dose, monitored 3 hours, FIG. 1): profoundly enhanced base-line barrier properties; also recorded: increases in resistance
- protection to histamine challenge [2]: 100%
- protection to thrombin challenge [2]: ~50%
- protection against pro-leak stimuli by pretreatment ([2]; thrombin, histamine, Ang-II and TNF-α): conferred profound protection against a range of pro-leak stimuli
- percent oxygen saturation (FIP rats; 10 mg/kg loading dose at 30 min, 5 mg/kg every two hours, tail vein, FIG. 8C): effectively preserved; also recorded: similarly maintained in bosutinib-treated, but not control, FIP rats
- capillary diameter (FIP rats; 10 mg/kg loading dose at 30 min, 5 mg/kg every two hours, tail vein, FIG. 8D): unaltered; also recorded: unchanged in both control and bosutinib rats
- red blood cell (RBC) velocity (FIP rats; 10 mg/kg loading dose at 30 min, 5 mg/kg every two hours, tail vein, baseline, 3 hr and 5 hr post FIP onset, FIG. 8A): rapidly decline following sepsis onset in control rats, but not in bosutinib-treated rats
- RBC supply rate (FIP rats; 10 mg/kg loading dose at 30 min, 5 mg/kg every two hours, tail vein, baseline, 3 hr and 5 hr post FIP onset, FIG. 8B): rapidly decline following sepsis onset in control rats, but not in bosutinib-treated rats
- microvascular flow (FIP rats; pilot studies, septic rats, FIGS. 8A and 8B): effectively preserved
- duration of sustained barrier enhancement ([3]; longest experiments conducted thus far): > 72 h
- vascular barrier function (ECIS resistance, normalized to 1) [3]: sustained, dose-dependent increase in vascular barrier function
- vascular barrier function (ECIS resistance, normalized to 1) ([3]; listed as Bosutinib): sustained barrier enhancement effects in a dose-dependent manner
- efficacy against Src kinase (Src): low nanomolar range
- endothelial junction continuity and gap formation ([4]; 300 nM 30 min pretreatment, thrombin 2.5 U/ml or histamine 300 μM for 30 min, FIG. 5A): maintains continuous junctions and cortical actin during challenge
- VE-cadherin and cortical actin at the intercellular junctions [4, 5]: increase in VE-cadherin and cortical actin at the intercellular junctions
- actin stress fibers in endothelial cells [4, 5]: decrease in actin stress fibers
- total junctional area per field ([4]; thrombin or histamine challenge, FIG. 5B): significantly increased junctional area compared to vehicle controls

Compound: Cc1ccc(NC(=O)c2ccc(CN3CCN(C)CC3)cc2)cc1Nc1nccc(-c2cccnc2)n1 [imatinib, Imatinib]
- protection to histamine challenge [2]: 5-10%
- protection to thrombin challenge [2]: 5-10%

Compound: hepatocyte growth factor [HGF]
- endothelial barrier function (ECIS) compared to benchmark agents [1]: initially promoted a similar increase, which was rapidly reversed after ˜20 minutes leading ultimately to a sustained decrease in barrier function

Compound: CC(C)(C)n1nc(-c2ccc(Cl)cc2)c2c(N)ncnc21 [PP2, 3-(4-chlorophenyl)-1-(1,1-dimethylethyl)-1H-pyr-azolo[3,4-d]pyrimidin-4-amine]
- endothelial barrier function (ECIS) compared to other Src inhibitors [1]: greatly reduced, endothelial barrier function; also recorded: sustained decreases in barrier function

Compound: activated protein C [APC]
- endothelial barrier function (ECIS) compared to benchmark agents [1]: increase in barrier function that was relatively minor in both magnitude and duration
